Assay results as given in US10316017B2, “COT modulators and methods of use thereof” (Gilead Sciences, Inc., priority 2015, dated 2019).

What was measured:
[1] = tested on: TNFα production in LPS-stimulated human monocytes; test: Cot Monocyte TNFα Cell Based Assay; conditions: Homo sapiens, Monocyte, TNFα in LPS-stimulated human monocytes; read-out: EC50 TNF
Method in brief: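 5,000 cells/well; cmpd 1 h, 37 °C, 0.5% DMSO final; LPS 50 pg/ml, 4 h, 37 °C; media TNFα by HTRF sandwich (cryptate/XL665), RT overnight; % control vs unstimulated/stimulated wells.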

[2] = target: T1, human Cot catalytic domain (30-397 amino acids) (Homo sapiens, UniProt P41279); test: High Throughput Cot Biochemical Assay (KinEASE TR-FRET); conditions: Cot KinEASE TR-FRET (HTRF) biochemical assay, 400 μM ATP; read-out: IC50 HTRF
T1 construct: Purified recombinant human Cot catalytic domain (30-397 amino acids) was purchased from Cama Biosciences; purchased Cama Biosciences (so in the source)
T1 sequence (P41279 30-397): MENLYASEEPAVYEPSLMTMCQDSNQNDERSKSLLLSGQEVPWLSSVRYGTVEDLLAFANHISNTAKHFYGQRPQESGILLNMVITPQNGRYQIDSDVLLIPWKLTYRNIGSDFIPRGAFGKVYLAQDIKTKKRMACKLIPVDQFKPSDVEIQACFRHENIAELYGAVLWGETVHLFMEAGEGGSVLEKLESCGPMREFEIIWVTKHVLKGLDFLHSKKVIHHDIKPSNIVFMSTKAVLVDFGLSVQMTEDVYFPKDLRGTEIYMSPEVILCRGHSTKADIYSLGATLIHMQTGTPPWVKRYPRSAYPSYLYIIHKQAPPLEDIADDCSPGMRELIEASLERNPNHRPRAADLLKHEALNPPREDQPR
Method in brief: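 First, purified human Cot (aa 30-397) at 5 nM phosphorylates an XL665-labeled STK3 peptide (1 μM) at 400 μM ATP, pH 7.0, 0.1% DMSO. Then a europium-conjugated phospho-specific antibody binds the product, giving the TR-FRET signal.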

Structure (SMILES) | EC50 [1] | IC50 [2]
CC[C@@H](Nc1c(C#N)cnc2c(Cl)cc(N[C@@H](c3cccc(-c4ccccc4)c3)c3cn(C4CC4)nn3)cc12)c1ccccc1 [Example 94, 6-(((S)-[1,1'-biphenyl]-3-yl(1-cyclopropyl-1H-1,2,3-triazol-4-yl)methyl)amino)-8-chloro-4-(((R)-1-phenylpropyl)amino) quinoline-3-carbonitrile] | > 1000 nM | 12 nM
CC(C)(C)CNc1c(C#N)cnc2c(Cl)cc(N[C@@H](c3cccc(-c4ccccc4)c3)c3cn(C4CC4)nn3)cc12 [Example 95, (S)-6-(([1,1'-biphenyl]-3-yl(1-cyclopropyl-1H-1,2,3-triazol-4-yl)methyl)amino)-8-chloro-4-(neopentylamino) quinoline-3-carbonitrile] | > 1000 nM | 24 nM
CC[C@@H](Nc1c(C#N)cnc2c(Cl)cc(N[C@H](c3cn(C4CC4)nn3)c3ccccc3-c3ccccc3)cc12)c1ccccc1 [Example 96, 6-(((S)[1,1'-biphenyl]-2-yl(1-cyclopropyl-1H-1,2,3-triazol-4-yl)methyl)amino)-8-chloro-4-(((R)-1-phenylpropyl)amino) quinoline-3-carbonitrile] | > 1000 nM | 778 nM
CC(C)(C)CNc1c(C#N)cnc2c(Cl)cc(N[C@H](c3cn(C4CC4)nn3)c3ccccc3-c3ccccc3)cc12 [Example 97, (S)-6-(([1,1'-biphenyl]-2-yl(1-cyclopropyl-1H-1,2,3-triazol-4-yl)methyl)amino)-8-chloro-4-(neopentylamino) quinoline-3-carbonitrile] | > 1000 nM | 985 nM
[2H][C@](Nc1cc(Cl)c2ncc(C#N)c(NCC(C)(C)C)c2c1)(c1cn(C2CC2(F)F)nn1)c1ccccc1Cl (stereo partly shown) [Example 99, 8-chloro-6-(((2-chlorophenyl) (1-(2,2-difluorocyclopropyl)-1H-1,2,3-triazol-4-yl)methyl-d)amino)-4-(neopentylamino) quinoline-3-carbonitrile] | 454 nM | 19 nM
[2H][C@](Nc1cc(Cl)c2ncc(C#N)c(NCC(C)(C)C)c2c1)(c1cn(C2[C@H]3CN(C4COC4)C[C@@H]23)nn1)c1ccccc1Cl (stereo partly drawn) [Example 100, 8-chloro-6-(((2-chlorophenyl) (1-((1R,5S,6r)-3-(oxetan-3-yl)-3-azabicyclo[3.1.0]hexan-6-yl)-1H-1,2,3-triazol-4-yl)methyl-d)amino)-4-(neopentylamino) quinoline-3-carbonitrile] | 337 nM | 16 nM
[2H][C@@](Nc1cc(Cl)c2ncc(C#N)c(NCC(C)(C)C)c2c1)(c1cn(C2CC2)nn1)c1c(F)cccc1Cl [Example 101, (S)-8-chloro-6-(((2-chloro-6-fluorophenyl) (1-cyclopropyl-1H-1,2,3-triazol-4-yl)methyl-d)amino)-4-(neopentylamino) quinoline-3-carbonitrile] | > 1000 nM | 83 nM
[2H][C@](Nc1cc(I)c2ncc(C#N)c(NCC(C)(C)C)c2c1)(c1ccc(F)cc1)c1cn(C2CC2)nn1 [Example 102, (S)-6-(((1-cyclopropyl-1H-1,2,3-triazol-4-yl)(4-fluorophenyl)methyl-d)amino)-8-iodo-4-(neopentylamino) quinoline-3-carbonitrile] | > 1000 nM | 58 nM
[2H][C@@](Nc1cc(Cl)c2ncc(C#N)c(NCC(C)(C)C)c2c1)(c1cn(CC2(F)COC2)nn1)c1ccccc1Cl [Example 103, 8-chloro-6-(((2-chlorophenyl) (1-((3-fluorooxetan-3-yl)methyl)-1H-1,2,3-triazol-4-yl)methyl-d)amino)-4-(neopentylamino) quinoline-3-carbonitrile] | 522 nM | 50 nM
[2H][C@@](Nc1cc(Cl)c2ncc(C#N)c(NCC(C)(C)C)c2c1)(c1cn(CC2(O)COC2)nn1)c1ccccc1Cl [Example 104, 8-chloro-6-(((2-chlorophenyl) (1-((3-hydroxyoxetan-3-yl)methyl)-1H-1,2,3-triazol-4-yl)methyl-d)amino)-4-(neopentylamino) quinoline-3-carbonitrile] | 584 nM | 23 nM
[2H]C(Nc1cc(Cl)c2ncc(C#N)c(NCC(C)(C)C)c2c1)(c1cn(C2(C(F)(F)F)CC2)nn1)c1ccccc1Cl (stereo not shown) [Example 106, 8-chloro-6-(((2-chlorophenyl) (1-(1-(trifluoromethyl)cyclopropyl)-1H-1,2,3-triazol-4-yl)methyl-d)amino)-4-(neopentylamino) quinoline-3-carbonitrile] | 826 nM | 58 nM
[2H]C(Nc1cc(Cl)c2ncc(C#N)c(NCC(C)(C)C)c2c1)(c1cn(C2(C)CC2)nn1)c1ccccc1Cl (stereo not shown) [Example 107, 8-chloro-6-(((2-chlorophenyl)(1-(1-methylcyclopropyl)-1H-1,2,3-triazol-4-yl)methyl-d)amino)-4-(neopentylamino) quinoline-3-carbonitrile] | 272 nM | 14 nM
[2H][C@@](Nc1cc(Cl)c2ncc(C#N)c(NCC(C)(C)C)c2c1)(c1cn(CC(=O)O)nn1)c1ccccc1Cl [Example 108, (S)-2-(4-(((8-chloro-3-cyano-4-(neopentylamino)quinolin-6-yl)amino)(2-chlorophenyl)methyl-d)-1H-1,2,3-triazol-1-yl)acetic acid] | > 1000 nM | 48 nM
[2H][C@](Nc1cc(Cl)c2ncc(C#N)c(NCC(C)(C)C)c2c1)(c1cn(C(C)(C)C)nn1)c1ccccc1Cl [Example 109, 6-(((1-(tert-butyl)-1H-1,2,3-triazol-4-yl) (2-chlorophenyl)methyl-d)amino)-8-chloro-4-(neopentylamino) quinoline-3-carbonitrile] | 210 nM | 17 nM
[2H][C@](Nc1cc(Cl)c2ncc(C#N)c(Nc3cccc(Cl)c3OC3CC3)c2c1)(c1ccc(F)cc1)c1cn(C2CC2)nn1 [Example 110, (S)-8-chloro-4-((3-chloro-2-cyclopropoxyphenyl)amino)-6-(((1-cyclopropyl-1H-1,2,3-triazol-4-yl)(4-fluorophenyl)methyl-d)amino) quinoline-3-carbonitrile] | 133 nM | 16 nM
[2H][C@](Nc1cc(Cl)c2ncc(C#N)c(N[C@@H](c3ccccc3)[C@@H]3C[C@H]3C#N)c2c1)(c1ccc(F)cc1)c1cn(C2CC2)nn1 [Example 111, 8-chloro-4-(((R)-((1R,2R)-2-cyanocyclopropyl) (phenyl)methyl)amino)-6-(((S)-(1-cyclopropyl-1H-1,2,3-triazol-4-yl)(4-fluorophenyl)methyl-d)amino)quinoline-3-carbonitrile] | 960 nM | 72 nM

Continued, values first:

EC50 [1] | IC50 [2] | Structure (SMILES)
190 nM | 6 nM | CC(C)(C)CNc1c(C#N)cnc2c(Cl)cc(N[C@H](c3cn(C4CC4)nn3)c3ccccc3CO)cc12 [Example 114, (S)-8-chloro-6-(((1-cyclopropyl-1H-1,2,3-triazol-4-yl)(2-(hydroxymethyl)phenyl)methyl)amino)-4-(neopentylamino) quinoline-3-carbonitrile]
> 10000 nM | 3 nM | CC[C@@H](Nc1c(C#N)cnc2c(Cl)cc(N[C@@H](c3ccc(F)cc3)c3cn(CC(=O)O)nn3)cc12)c1ccccc1 [Example 115, 2-(4-((S)-((8-chloro-3-cyano-4-(((R)-1-phenylpropyl)amino)quinolin-6-yl)amino)(4-fluorophenyl)methyl)-1H-1,2,3-triazol-1-yl) acetic acid]
> 10000 nM | 14 nM | [2H][C@](Nc1cc(Cl)c2ncc(C#N)c(Nc3ccc(F)c(Cl)c3)c2c1)(c1ccc(F)cc1)c1cn(CC(=O)O)nn1 [Example 116, (S)-2-(4-(((8-chloro-4-((3-chloro-4-fluorophenyl)amino)-3-cyanoquinolin-6-yl)amino)(4-fluorophenyl)methyl-d)-1H-1,2,3-triazol-1-yl)acetic acid]
166 nM | 26 nM | [2H][C@](Nc1cc(Cl)c2ncc(C#N)c(NCC(C)(C)C)c2c1)(c1cn(CC#N)nn1)c1ccccc1Cl [Example 119, 8-chloro-6-(((2-chlorophenyl)(1-(cyanomethyl)-1H-1,2,3-triazol-4-yl)methyl-d)amino)-4-(neopentylamino) quinoline-3-carbonitrile]
201 nM | 19 nM | CC(C)(C)CNc1c(C#N)cnc2c(Cl)cc(N[C@H](c3cn(C4CC4)nn3)c3ccccc3OC(F)(F)F)cc12 [Example 122, (S)-8-chloro-6-(((1-cyclopropyl-1H-1,2,3-triazol-4-yl)(2-(trifluoromethoxy)phenyl)methyl)amino)-4-(neopentylamino) quinoline-3-carbonitrile]
218 nM | 14 nM | [2H][C@@](Nc1cc(Cl)c2ncc(C#N)c(N[C@@H]3[C@@H]4CCC[C@@H]43)c2c1)(c1cn(C2CC2)nn1)c1ccccc1Cl [Example 124, 4-(((1R,5S,6s)-bicyclo [3.1.0]hexan-6-yl)amino)-8-chloro-6-(((2-chlorophenyl)(1-cyclopropyl-1H-1,2,3-triazol-4-yl)methyl-d)amino) quinoline-3-carbonitrile]
> 10000 nM | 397 nM | [2H][C@](Nc1cc(Cl)c2ncc(C#N)c(Nc3ccccc3OC(F)(F)F)c2c1)(c1ccc(F)cc1)c1cn(C2CC2)nn1 [Example 126, (S)-8-chloro-6-(((1-cyclopropyl-1H-1,2,3-triazol-4-yl)(4-fluorophenyl)methyl-d)amino)-4-((2-(trifluoromethoxy)phenyl)amino)quinoline-3-carbonitrile]
